Paper PMC8018653, “Gender-based differences in brain and plasma pharmacokinetics of letrozole in sprague-dawley rats: Application of physiologically-based pharmacokinetic modeling to gain quantitative insights” (PLoS ONE, 2021)
Where “and” joins values, the source holds several entries; their conditions need not be identical. Identical values can stand only once. Entries after “also recorded” stand apart in the source; their conditions may differ. Like-named read-outs stand apart in the source and are kept apart here. Marks after values point to notes of the source that are not given here.

Key:
[1] = Steady state plasma pharmacokinetics (4 mg/kg i.p. once daily), NCA; type: in vivo, Sprague-Dawley rats; conditions: for Cmax / Tmax / AUC(0-t): Sprague-Dawley, rat, ip; for Cmax / Tmax / Rac’ (theoretical/predicted accumulation ratio, Eq 2) / AUC(0-t): plasma; for Cmax: read-out: Cmax, plasma total; for Tmax: read-out: Tmax, plasma total; for AUC 0–12, plasma unbound / AUC 0–24, plasma unbound / Cmax, plasma unbound: fraction unbound 0.38; for AUC(0-t): 4 mg/kg
Method: (§1) Age-matched (7–9 weeks) adult female (201–225 g; N = 10) and male (301–325 g; N = 10) jugular vein cannulated Sprague-Dawley rats (Charles River Laboratories) were used for this study. The experiments were conducted in strict accordance with the University of Cincinnati Institutional Animal Care and Use Committee (UC IACUC)-approved protocol (Protocol Number: 10-11-01-01) and all the studies were performed as per the highest international standards of animal welfare outlined by the NIH’s Guide for the Care and Use of Laboratory Animals. Upon arrival, animals were housed individually under pathogen-free, temperature and humidity-controlled environment on a 12/12 h light/dark cycle and were given access to standard chow and water ad libitum (ad-lib). To maintain the patency of the jugular vein catheters, they were flushed with normal saline and locked with the heparin-dextrose solution every other day.
(§2) Letrozole was extracted from the plasma samples using the liquid-liquid extraction technique. Calibration standards were freshly prepared by spiking working letrozole solution into the blank rat plasma to give a concentration curve ranging from 5 to 5000 ng/ml. Briefly, 50 μl of the plasma sample/standard spiked with known letrozole concentration was transferred to a glass tube containing 1 mL of the extraction solvent methyl-tertiary-butyl ether. All the samples were then vortex mixed for 40 sec and centrifuged for 5 min. 800 μl of the supernatant was decanted into a clean test tube and evaporated to dryness using a CentriVap evaporator. The precipitate was reconstituted in 100 μl of the mobile phase and vortex mixed, following which, 50 μl sample volume was injected onto the HPLC system for analysis. The dialysis samples, on the other hand, were injected directly onto HPLC.

[2] = Single dose plasma pharmacokinetics (4 mg/kg i.p.), NCA; type: in vivo, Sprague-Dawley rats; conditions: for Cmax / Tmax / AUC(0-t) / half-life: ip; for Cmax / Tmax / CL (systemic clearance), plasma / Half-life t1/2, plasma / AUC 0–12, plasma unbound / AUC 0–72, plasma unbound / Cmax, plasma unbound / AUC(0-t) / half-life: single dose 4 mg/kg i.p.; for Cmax: read-out: Cmax, plasma total; for Tmax: read-out: Tmax, plasma total; for AUC 0–12, plasma unbound / AUC 0–72, plasma unbound / Cmax, plasma unbound: fraction unbound 0.38; for half-life: read-out: Half-life t1/2, plasma (converted)
Method: as §1
Within 10 minutes of collection, plasma was separated by centrifugation of the blood samples at 4,000 rpm for 15 min. Microdialysis samples were collected simultaneously through the probes at the same time points from 0–12 hours.
as §2

[3] = set-up: method as in PMID 11501174; conditions: cited from earlier work; for CLpo: assuming 250 g average body weight
[4] = PBPK input; ref Chemicalize database; cited from earlier work
[5] = set-up: method as in PMID 16489364; conditions: cited from earlier work
[6] = set-up: method as in PMID 17045772; conditions: rat liver microsomes; cited from earlier work
[7] = set-up: method as in PMID 30357450; conditions: NSG mice; cited from earlier work
C6 orthotopic tumor = system: C6 orthotopic tumor; set-up: method as in PMID 25695958; conditions: C6 orthotopic glioma, rats, 4 mg/kg; cited from earlier work
P-glycoprotein (P-gp) = conditions: cited from earlier work
[8] = In vivo unbound fraction in brain (brain ECF / whole brain tissue homogenate); conditions: Sprague-Dawley, rat, ip, healthy and tumor-bearing female rats, 4 mg/kg i.p., ~6 hrs, mean ± SD, read-out: Fraction unbound in brain (fu, brain)
Description: Simcyp Animal Simulator V17 (Certara Inc.) was employed for developing a bottom-up whole body PBPK model incorporating the specified multi-compartment brain model. Based on its anatomy and physiology, the whole brain is described by three compartments, viz. brain blood, brain mass and cerebrospinal fluid (CSF) as illustrated in Fig 1 (Simcyp® Rat Simulator). For model development, the physiological/ system-specific parameters were inferred from the existing rodent species within the animal simulator while, the key drug- specific parameters used are summarized in Table 1. Briefly, all the physiochemical and binding to blood components (plasma proteins and erythrocytes) parameters of letrozole were derived from expansive literature review. […] Full-PBPK model was employed for drug distribution while the Rodgers and Rowland method or “Method 2”, as defined in Simcyp v17, predicted the volume of distribution (Vss). For the multi-compartment brain model, the passive permeability-surface area product on the BBB (PSB) was determined using the Crone- Renkin Equation [25, 26]: PSB=−Fpfln(1−Kin/Fpf) (3) where, Fpf is the cerebral blood or perfusion flow rate and Kin is the brain uptake clearance. […] The fu, brain for letrozole was experimentally determined in both healthy and tumor-bearing female Sprague-Dawley rats (N = 4/ group).

[9] = female rats, steady state, 4 mg/kg i.p. daily for 11 days
[10] = male rats, steady state, 4 mg/kg i.p. daily for 5 days
[11] = female rats, steady state, 11 days
[12] = male rats, steady state, 5 days
[13] = Sprague-Dawley, rat, plasma, female rats
[14] = Sprague-Dawley, rat, plasma, male rats

Q: For `N#Cc1ccc(C(c2ccc(C#N)cc2)n2cncn2)cc1` [letrozole], which Cmax [1, 9] is on record?
A: 4830 ng/mL

Q: What about the Tmax [1, 9] of the same compound?
A: 5.3 h

Q: And the Cmax [1, 10]?
A: 1490 ng/mL

Q: And the Tmax [1, 10]?
A: 3.3 h

Q: What about the “Rac plasma (observed accumulation ratio, AUC0-12)” value ([1]; female rats, Day 11 / Day 1) of the same compound?
A: 4.2

Q: And the “Rac plasma (observed accumulation ratio, Cmax)” value ([1]; female rats, Day 11 / Day 1)?
A: 4.0

Q: What about the “Rac’ (theoretical/predicted accumulation ratio, Eq 2)” value ([1]; female rats) of the same compound?
A: 2.6

Q: What about the “CL (systemic clearance), plasma” value [1, 9] of the same compound?
A: 39.3 (5.5)* ml/h/kg

Q: And the “AUC 0–12, plasma unbound” value [1, 11]?
A: 18734 (2360) h.ng/ml

Q: And the “AUC 0–24, plasma unbound” value [1, 11]?
A: 39129 (5267) h.ng/ml

Q: And the “Cmax, plasma unbound” value [1, 11]?
A: 1835 (359) ng/ml

Q: And the AUC(0-t) ([1]; female, female rats, steady state, 4 mg/kg i.p. daily for 11 days, read-out: AUC 0–12, plasma total)?
A: 49300 ng·h/mL

Q: And the AUC(0-t) ([1]; female, female rats, steady state, 4 mg/kg i.p. daily for 11 days, read-out: AUC 0–24, plasma total)?
A: 103000 ng·h/mL

Q: And the AUC(0-t) ([1]; female, female rats, steady state, 4 mg/kg i.p. daily for 11 days, read-out: plasma AUC 0–24)?
A: 103000 ng·h/mL

Q: And the “observed accumulation at steady state (plasma Cmax and AUC0-12)” value ([1]; male rats)?
A: approximately 1.4 fold

Q: What about the “Rac plasma (observed accumulation ratio, AUC0-12)” value ([1]; male rats, Day 5 / Day 1) of the same compound?
A: 1.4

Q: What about the “Rac plasma (observed accumulation ratio, Cmax)” value ([1]; male rats, Day 5 / Day 1) of the same compound?
A: 1.4

Q: What about the “Rac’ (theoretical/predicted accumulation ratio, Eq 2)” value ([1]; male rats) of the same compound?
A: 1.2

Q: And the “CL (systemic clearance), plasma” value [1, 10]?
A: 200.6 (98) ml/h/kg

Q: What about the “AUC 0–12, plasma unbound” value [1, 12] of the same compound?
A: 5624 (2430) h.ng/ml

Q: And the “AUC 0–24, plasma unbound” value [1, 12]?
A: 9424 (4660) h.ng/ml

Q: What about the “Cmax, plasma unbound” value [1, 12] of the same compound?
A: 566 (209) ng/ml

Q: And the AUC(0-t) ([1]; male, male rats, steady state, 4 mg/kg i.p. daily for 5 days, read-out: AUC 0–12, plasma total)?
A: 14800 ng·h/mL

Q: And the AUC(0-t) ([1]; male, male rats, steady state, 4 mg/kg i.p. daily for 5 days, read-out: AUC 0–24, plasma total)?
A: 24800 ng·h/mL

Q: And the AUC(0-t) ([1]; male, male rats, steady state, 4 mg/kg i.p. daily for 5 days, read-out: plasma AUC 0–24)?
A: 24800 ng·h/mL

Q: What about the “systemic clearance, difference between male and female rats” value ([1]; steady state) of the same compound?
A: approximately 5.0 fold

Q: And the clearance ([2]; Sprague-Dawley, rat, plasma, intraperitoneal, 4 mg/kg, female rats, read-out: clearance observed in this study)?
A: ~0.25 mL/min

Q: And the Cmax [2, 13]?
A: 1200 ng/mL

Q: And the Tmax [2, 13]?
A: 8.5 h

Q: And the Cmax [2, 14]?
A: 1060 ng/mL

Q: And the Tmax [2, 14]?
A: 6.5 h

Q: And the “CL (systemic clearance), plasma” value ([2]; female rats)?
A: 57.4 (13.0)*** ml/h/kg

Q: And the “Half-life t1/2, plasma” value ([2]; female rats, 4 mg/kg)?
A: 34.0 (3.6)*** h

Q: And the “AUC 0–12, plasma unbound” value ([2]; female rats)?
A: 4446 (1160) h.ng/ml

Q: And the “AUC 0–72, plasma unbound” value ([2]; female rats)?
A: 20668 (4980) h.ng/ml

Q: And the “Cmax, plasma unbound” value ([2]; female rats)?
A: 456 (60) ng/ml

Q: And the AUC(0-t) ([2]; female, Sprague-Dawley, rat, plasma, 4 mg/kg, female rats, read-out: AUC 0–12, plasma total)?
A: 11700 ng·h/mL

Q: And the AUC(0-t) ([2]; female, Sprague-Dawley, rat, plasma, 4 mg/kg, female rats, read-out: AUC 0–72, plasma total)?
A: 54400 ng·h/mL

Q: What about the half-life ([2]; female, Sprague-Dawley, rat, plasma, 4 mg/kg, female rats) of the same compound?
A: ~34 h

Q: What about the “CL (systemic clearance), plasma” value ([2]; male rats, 4 mg/kg) of the same compound?
A: 145.9 ± 14.0 ml/h/kg and 146 (14.0) ml/h/kg

Q: And the “Half-life t1/2, plasma” value ([2]; male rats, 4 mg/kg)?
A: 9.2 (2.4) h and 9.23 h

Q: And the “AUC 0–12, plasma unbound” value ([2]; male rats)?
A: 4066 (1140) h.ng/ml

Q: And the “AUC 0–72, plasma unbound” value ([2]; male rats)?
A: 9447 (1920) h.ng/ml

Q: What about the “Cmax, plasma unbound” value ([2]; male rats) of the same compound?
A: 403 (136) ng/ml

Q: And the AUC(0-t) ([2]; male, Sprague-Dawley, rat, plasma, 4 mg/kg, male rats, read-out: AUC 0–12, plasma total)?
A: 10700 ng·h/mL

Q: And the AUC(0-t) ([2]; male, Sprague-Dawley, rat, plasma, 4 mg/kg, male rats, read-out: AUC 0–72, plasma total)?
A: 24900 ng·h/mL

Q: And the half-life ([2]; male, Sprague-Dawley, rat, plasma, 4 mg/kg, male rats)?
A: ~9 h

Q: And the Fa ([3]; PBPK input)?
A: 0.99

Q: And the CLpo ([3]; females)?
A: 0.21 mL/min

Q: And the CL ([3]; females)?
A: 0.85 mL/min/kg

Q: And the “Ka (first-order rate of absorption)” value ([3]; females)?
A: 0.49 h⁻¹

Q: And the CLpo ([3]; males)?
A: 0.77 mL/min

Q: And the CL ([3]; males)?
A: 3.08 mL/min/kg

Q: And the “Ka (first-order rate of absorption)” value ([3]; males)?
A: 0.29 h⁻¹

Q: And the Intrinsic solubility [4]?
A: 62 µg/mL

Q: And the logP [4]?
A: ≈ 2.5

Q: What about the oral bioavailability [5] of the same compound?
A: ~100%

Q: What about the “overall intrinsic clearance and formation rate of the carbinol metabolite, male versus female rats” value [6] of the same compound?
A: about 3.0 fold

Q: And the half-life [7]?
A: ~ 3 hrs

Q: And the “in vivo efficacy (tumor mass / volume)” value (C6 orthotopic tumor)?
A: marked reduction in the tumor mass; also recorded: marked reduction in tumor volume

Q: What about the “substrate for the efflux transporter P-glycoprotein (P-gp)” value (P-glycoprotein (P-gp)) of the same compound?
A: not a substrate

Q: And the fraction unbound [8]?
A: 0.58
